# Experimental data reported in patent publication US10076572B2, “Photodynamic therapy for treating Clostridium difficile infection using chitosan and tetracycline” (priority 2015, dated 2018).
# “And” between values parts separate entries of the source, which are not always exact repeats. Equal values may be shown once.
# Columns and labels:
# C. difficile [1] = test: Synergistic photodynamic bactericidal activity (PDT with UVA), colony-forming units; format: cell-based, Clostridium difficile (KCTC 5009); conditions: for Log10 CFU/mL (mean ± SD, n = 3): UVA
# Method: The standard strain of Clostridium difficile was provided by Korean Collection for Type Cultures (C. difficile, KCTC 5009). C. difficile was cultured at 37° C. in a standard anaerobic condition on Clostridia reinforced agar (Oxoid, Cambridge, CB5 8BZ, UK).
# Tetracycline, chitosan (low molecular weight), and ethidium bromide monoazide (EMA) were purchased from Sigma (Sigma Chemical Co., St. Louis, Mo.). A stock solution of tetracycline was prepared in water at a concentration of 10 mg/mL and stored for a maximum of 2 weeks at 4° C. in the dark before use. A stock solution of chitosan (1% w/v) was prepared in 1% acetic acid and used within one month. The light source for UVA was lamp (315-400 nm) for treatment of psoriasis (UV801KL, Waldmann Medical division, Germany). The irradiation procedure was performed in a dark and closed box and C. difficile containing plates were placed at a distance of 10 cm from the light source.
# Based on a modification of the method of Tegos (G. P. Tegos, M. R. Hamblin. Phenothiazinium bactericidal photosensitizers are substrates of bacterial multidrug resistance pumps. Antimicrob. Agents Chemother. 50 (2006)196-203.), C. difficile that had been stored at −70° C. was cultured in Clostridial agar medium for 3 days.
# After successive subcultures for two days, the cells were collected and suspended in PBS at a concentration of 10^8 cells/mL. The cell suspension was exposed to tetracycline alone at concentrations of 0.05 mg/mL, 0.1 mg/mL, 0.5 mg/mL and 1 mg/mL, or to 0.0125% chitosan containing TC at a concentration of 0.05 mg/mL, 0.1 mg/mL, 0.5 mg/mL and 1 mg/mL for 30 min.
# After samples were washed twice with PBS, the bacterial cell suspension was dispensed at a volume of 1000 μL in a plate for irradiation for 5, 10, 20 and 30 min. After irradiation, cells were serially diluted tenfold in PBS to give dilutions of 10^−1 to 10^−8 of the original concentrations, and a 10 μL aliquot of each dilution was spotted on a Clostridial agar plate. After 2 days incubation, the colonies were counted to obtain the number of colony-forming units. C. difficile without treatment with TC, chitosan and light served as the control.
# C. difficile [2] = test: EMA-qPCR analysis of C. difficile DNA (16S rRNA gene) to evaluate cell death and DNA damage; format: cell-based, Clostridium difficile (KCTC 5009); conditions: UVA + TC (0.5 mg/mL), UVA irradiation 30 min
# [3] = TC 0.05 mg/mL+UVA, after 30 min irradiation
# [4] = TC 0.1 mg/mL+UVA, after 30 min irradiation
compound,measurement,setting,value
"CN(C)[C@@H]1C(O)=C(C(N)=O)C(=O)[C@@]2(O)C(O)=C3C(=O)c4c(O)cccc4[C@@](C)(O)[C@H]3C[C@@H]12 [TC, tetracycline]","Log10 CFU/mL (mean ± SD, n = 3)","C. difficile [1]; 0.05 mg/mL TC, irradiation 0 min",8.11 ± 0.48 Log10 CFU/mL
same,"Log10 CFU/mL (mean ± SD, n = 3)","C. difficile [1]; 0.05 mg/mL TC, irradiation 5 min",8.11 ± 0.78 Log10 CFU/mL
same,"Log10 CFU/mL (mean ± SD, n = 3)","C. difficile [1]; 0.05 mg/mL TC, irradiation 10 min",8.13 ± 0.40 Log10 CFU/mL
same,"Log10 CFU/mL (mean ± SD, n = 3)","C. difficile [1]; 0.05 mg/mL TC, irradiation 20 min",8.11 ± 0.67 Log10 CFU/mL
same,"Log10 CFU/mL (mean ± SD, n = 3)","C. difficile [1]; 0.05 mg/mL TC, irradiation 30 min",7.14 ± 0.33 Log10 CFU/mL
same,"Log10 CFU/mL (mean ± SD, n = 3)","C. difficile [1]; 0.1 mg/mL TC, irradiation 0 min",8.03 ± 0.39 Log10 CFU/mL
same,"Log10 CFU/mL (mean ± SD, n = 3)","C. difficile [1]; 0.1 mg/mL TC, irradiation 5 min",8.11 ± 0.11 Log10 CFU/mL
same,"Log10 CFU/mL (mean ± SD, n = 3)","C. difficile [1]; 0.1 mg/mL TC, irradiation 10 min",8.13 ± 0.53 Log10 CFU/mL
same,"Log10 CFU/mL (mean ± SD, n = 3)","C. difficile [1]; 0.1 mg/mL TC, irradiation 20 min",8.11 ± 0.21 Log10 CFU/mL
same,"Log10 CFU/mL (mean ± SD, n = 3)","C. difficile [1]; 0.1 mg/mL TC, irradiation 30 min",7.12 ± 0.38 Log10 CFU/mL
same,"Log10 CFU/mL (mean ± SD, n = 3)","C. difficile [1]; 0.5 mg/mL TC, irradiation 0 min",8.03 ± 0.48 Log10 CFU/mL
same,"Log10 CFU/mL (mean ± SD, n = 3)","C. difficile [1]; 0.5 mg/mL TC, irradiation 5 min",6.02 ± 0.76 Log10 CFU/mL
same,"Log10 CFU/mL (mean ± SD, n = 3)","C. difficile [1]; 0.5 mg/mL TC, irradiation 10 min",5.12 ± 0.10 Log10 CFU/mL
same,"Log10 CFU/mL (mean ± SD, n = 3)","C. difficile [1]; 0.5 mg/mL TC, irradiation 20 min",5.11 ± 0.27 Log10 CFU/mL
same,"Log10 CFU/mL (mean ± SD, n = 3)","C. difficile [1]; 0.5 mg/mL TC, irradiation 30 min",5.11 ± 0.23 Log10 CFU/mL
same,"Log10 CFU/mL (mean ± SD, n = 3)","C. difficile [1]; 1 mg/mL TC, irradiation 0 min",8.03 ± 0.39 Log10 CFU/mL
same,"Log10 CFU/mL (mean ± SD, n = 3)","C. difficile [1]; 1 mg/mL TC, irradiation 5 min",5.21 ± 0.11 Log10 CFU/mL
same,"Log10 CFU/mL (mean ± SD, n = 3)","C. difficile [1]; 1 mg/mL TC, irradiation 10 min",4.11 ± 0.23 Log10 CFU/mL
same,"Log10 CFU/mL (mean ± SD, n = 3)","C. difficile [1]; 1 mg/mL TC, irradiation 20 min",4.11 ± 0.21 Log10 CFU/mL
same,"Log10 CFU/mL (mean ± SD, n = 3)","C. difficile [1]; 1 mg/mL TC, irradiation 30 min",0 Log10 CFU/mL
same,decrease of viable cells,C. difficile [1]; [3],10 times
same,viable cells,C. difficile [1]; [3],1.12×10^7
same,decrease of viable cells,C. difficile [1]; [4],10 times
same,viable cells,C. difficile [1]; [4],1.14×10^7
same,viable cells,"C. difficile [1]; TC 0.5 mg/mL+UVA, after 5 min irradiation",1.10×10^6
same,viable cells,"C. difficile [1]; TC 0.5 mg/mL+UVA, after 10 min irradiation",1.12×10^5
same,viable cells,"C. difficile [1]; TC 0.5 mg/mL+UVA, after 20 min irradiation",1.11×10^5
same,viable cells,"C. difficile [1]; TC 0.5 mg/mL+UVA, after 30 min irradiation",1.13×10^5
same,viable cells,"C. difficile [1]; TC 1.0 mg/mL+UVA, after 5 min irradiation",1.21×10^5
same,viable cells,"C. difficile [1]; TC 1.0 mg/mL+UVA, after 10 min irradiation",1.11×10^4
same,viable cells,"C. difficile [1]; TC 1.0 mg/mL+UVA, after 20 min irradiation",1.13×10^4
same,viable cells,"C. difficile [1]; TC 1.0 mg/mL+UVA, after 30 min irradiation",0
same,"Ct value (EMA-qPCR, 16S rRNA)",C. difficile [2],23.026±0.101 and 23.03 ± 0.101
